Results: patent US20240245691A1 (Sitryx Therapeutics Limited, priority 2021, published 2024)
Like-named read-outs stand apart in the source and are kept apart here.

Assays:
[1] = system: IL-1β; assay: THP-1 AlphaLISA IL-1β cytokine assay (differentiated THP-1 cells); assay type: cell-based; conditions: Homo sapiens
Experimental: (§1) Measuring Inhibitory Effects on IL-1V Cytokine and IL-6 Output from THP-1s
(§2) The cytokine inhibition profiles of compounds of formula (I) were determined in a differentiated THP-1 cell assay. All assays were performed in RPMI-1640 growth medium (Gibco), supplemented with 10% fetal bovine serum (FBS; Gibco), 1% penicillin-streptomycin and 1% sodium pyruvate unless specified otherwise. The IL-1β and IL-6 cytokine inhibition assays were run in a background of differentiated THP-1 cells as described below. All reagents described were from Sigma-Aldrich unless specified otherwise. Compounds were prepared as 10 mM DMSO stocks.
(§3) THP-1 cells were expanded as a suspension up to 80% confluence in appropriate growth medium. Cells were harvested, suspended, and treated with an appropriate concentration of phorbol 12-myristate 13-acetate (PMA) over a 72 hr period (37° C./5% CO2).
(§4) Following 72 hrs of THP-1 cell incubation, cellular medium was removed and replaced with fresh growth media containing 1% of FBS. Working concentrations of compounds were prepared separately in 10% FBS treated growth medium and pre-incubated with the cells for 30 minutes (37° C./5% CO2). Following the 30 minute compound pre-incubation, THP-1s were treated with an appropriate concentration of LPS and the THP-1s were subsequently incubated for a 24 hr period (37° C./5% CO2). An appropriate final concentration of Nigericin was then dispensed into the THP-1 plates and incubated for 1 hour (37° C./5% CO2) before THP-1 supernatants were harvested and collected in separate polypropylene 96-well holding plates.
(§5) Reagents from each of the IL-1β and IL-6 commercial kits (Perkin Elmer) were prepared and run according to the manufacturer's instructions. Subsequently, fluorescence signal detection in a microplate reader was measured (EnVision® Multilabel Reader, Perkin Elmer).
(§6) Percentage inhibition was calculated per cytokine by normalising the sample data to the high and low controls used within each plate (+/−LPS respectively).
(§7) Dimethyl itaconate and 4-octyl itaconate were included as comparator compounds.

[2] = system: IL-6; assay: THP-1 AlphaLISA IL-6 cytokine assay (differentiated THP-1 cells); assay type: cell-based
Experimental: as §1, §2, §3, §4, §5, §6, §7

[3] = Hepatocyte stability assay, human; assay type: in vitro ADME; conditions: human, hepatocytes, T½
Excerpt: (§8) Defrosted cryo-preserved hepatocytes (viability>70%) were used to determine the metabolic stability of a compound via calculation of intrinsic clearance (CIint; a measure of the removal of a compound from the liver in the absence of blood flow and cell binding). Clearance data are particularly important for in vitro work as they can be used in combination with in vivo data to predict the half-life and oral bioavailability of a drug.
(§9) The metabolic stability in hepatocytes assay involved a time-dependent reaction using both positive and negative controls. The cells must be pre-incubated at 37° C. then spiked with test compound (and positive control); samples taken at pre-determined time intervals were analysed to monitor the change in concentration of the initial drug compound over 60 minutes. A buffer incubation reaction (with no hepatocytes present) acted as a negative control and two cocktail solutions, containing compounds with known high and low clearance values (verapamil/7-hydroxycoumarin and propranolol/diltiazem), acted as positive controls. • 1. The assay was run with a cell concentration of 0.5×10^6 cells/mL in Leibovitz buffer. • 2. All compounds and controls were run in duplicate. • 3. Compound concentration was 10 μM. • 4. All compounds and controls were incubated with both cells and buffer to show turnover is due to hepatic metabolism. • 5. All wells on the incubation plate had 326.7 μL of either cells or buffer added. • 6. Prior to assay, cell and buffer-only incubation plates were preincubated for 10 mins at 37° C. • 7. The assay was initiated by adding compounds, 3.3 μL of 1 mM in 10% DMSO-90% Buffer; final DMSO concentration is 0.1%. • 8. Samples were taken at regular timepoints (0, 5, 10, 20, 40, 60 min) until 60 mins. • 9. Sample volume was 40 μL and added to 160 μL of crash solvent (acetonitrile with internal standard) and stored on ice. • 10. At the end of the assay, the crash plates were centrifuged at 3500 rpm for 20 mins at 4° C. • 11. 80 μL of clear supernatant was removed and mixed with 80 μL of deionised water before being analysed by LC-MS/MS.
(§10) Raw LC-MS/MS data were exported to, and analysed in, Microsoft Excel for determination of intrinsic clearance. The percentage remaining of a compound was monitored using the peak area of the initial concentration as 100%. Intrinsic clearance and half-life values were calculated using a graph of the natural log of percentage remaining versus the time of reaction in minutes.
(§11) 4-Octyl itaconate was included as a comparator compound.

[4] = system: cryo-preserved hepatocytes; assay: Hepatocyte stability assay, human; assay type: in vitro ADME; conditions: human, hepatocytes
Excerpt: as §8, §9, §10, §11

[5] = Hepatocyte stability assay, mouse; assay type: in vitro ADME; conditions: mouse, hepatocytes, T½
Excerpt: as §8, §9, §10, §11

[6] = system: cryo-preserved hepatocytes; assay: Hepatocyte stability assay, mouse; assay type: in vitro ADME; conditions: mouse, hepatocytes
Excerpt: as §8, §9, §10, §11

[7] = THP-1, differentiated THP-1 cells, LPS 24 hr then Nigericin 1 hour, read-out: IL-1β (IC50)
[8] = Homo sapiens, THP-1, differentiated THP-1 cells, LPS 24 hr then Nigericin 1 hour, read-out: IL-6 (IC50)
[9] = Homo sapiens, THP-1, read-out: IL-6 (IC50)

Structure (SMILES) | IC50 [1, 7] [µM] | IC50 [2, 8] [µM] | half-life at 10 μM [3] [h] | Clint [4] [μL min^−1 10^−6 cells] | half-life at 10 μM [5] [h] | Clint [6] [μL min^−1 10^−6 cells] | IC50 ([2]; differentiated THP-1 cells, LPS 24 hr then Nigericin 1 hour, read-out: IL-6 (IC50)) [µM] | IC50 ([1]; THP-1, read-out: IL-1β (IC50)) [µM] | IC50 [2, 9] [µM]
C=C(CC(=O)N[C@@H](C)c1ccc(C(F)(F)F)cn1)C(=O)OC1CS(=O)(=O)C1 [Example 33, 1,1-dioxidothietan-3-yl (S)-2-methylene-4-oxo-4-((1-(5-(trifluoromethyl)pyridin-2-yl)ethyl)amino)butanoate] | 1.82 | 3.64 | 0.183 | 151 | 0.167 | 205 |  |  | 
C=C(CC(=O)NC1CCc2cc(C(F)(F)F)ccc21)C(=O)O (stereo not drawn) [Example 40, 2-methylene-4-oxo-4-((5-(trifluoromethyl)-2,3-dihydro-1H-inden-1-yl)amino) butanoic acid] | 26.9 | > 100 | > 7.67 | <3 | > 7.67 | <3 |  |  | 
C=C(CC(=O)N[C@@H](C)c1ccc(C(F)(F)F)cc1)C(=O)OC1(C)COC1 [Example 28, 3-methyloxetan-3-yl (S)-2-methylene-4-oxo-4-((1-(4-(trifluoromethyl)phenyl)ethyl)amino)butanoate] |  |  | 0.3 | 80 | < 0.05 | >460 |  | 10.5 | 5.6
C/C=C(/CC(=O)N[C@@H](C)c1ccc(C(F)(F)F)cc1)C(=O)O [Example 41, (S,Z)-2-(2-oxo-2-((1-(4-(trifluoromethyl)phenyl)ethyl)amino)ethyl)but-2-enoic acid] |  |  | > 7.67 | <3 | > 7.67 | <3 |  | 24.3 | > 31.6
C[C@H](NC(=O)C/C(=C/c1ccccc1)C(=O)O)c1ccc(C(F)(F)F)cc1 [Example 48, (S,Z)-2-benzylidene-4-oxo-4-((1-(4-(trifluoromethyl)phenyl)ethyl)amino)butanoic acid] | 2.3 | > 100 | 3.73 | 7 | 0.267 | 95 |  |  | 
C[C@H](NC(=O)C/C(=C\CN(C)C)C(=O)O)c1ccc(C(F)(F)F)cc1 [Example 49, (S,E)-4-(dimethylamino)-2-(2-oxo-2-((1-(4-(trifluoromethyl)phenyl)ethyl)amino)ethyl)but-2-enoic acid] |  |  | > 7.67 | <3 | > 7.67 | <3 |  | 16.5 | > 100
C=C(CC(=O)N[C@@H](C)c1ccc(C(F)(F)F)cc1)C(=O)OCCN(C)C [Example 26, 2-(dimethylamino)ethyl (S)-2-methylene-4-oxo-4-((1-(4-(trifluoromethyl)phenyl)ethyl)amino)butanoate] | 5.1 | 3.9 | 0.4 | 62 | < 0.05 | >460 |  |  | 

Now from value to compound, other results behind:

IC50 [1, 7] [µM] | IC50 [2, 8] [µM] | half-life at 10 μM [3] [h] | Clint [4] [μL min^−1 10^−6 cells] | half-life at 10 μM [5] [h] | Clint [6] [μL min^−1 10^−6 cells] | IC50 ([2]; differentiated THP-1 cells, LPS 24 hr then Nigericin 1 hour, read-out: IL-6 (IC50)) [µM] | Structure (SMILES) | IC50 ([1]; THP-1, read-out: IL-1β (IC50)) [µM] | IC50 [2, 9] [µM]
13.9 | > 31.6 | 3.72 | 8 | 1.58 | 16 |  | C=C(CC(=O)N[C@@H](C)c1ccc(SC(F)(F)F)cc1)C(=O)O [Example 17] |  | 
8.3 | > 100 | > 7.67 | <3 | > 7.67 | <3 |  | C=C(CC(=O)NC1(c2ccc(C(F)(F)F)cc2)CC1)C(=O)O [Example 11, 2-methylene-4-oxo-4-((1-(4-(trifluoromethyl)phenyl)cyclopropyl)amino)butanoic acid] |  | 
8.2 | > 100 | > 7.67 | <3 | 1.25 | 21 |  | C=C(CC(=O)NC(c1ccc(C(F)(F)F)cc1)C(F)(F)F)C(=O)O (stereo not drawn) [Example 7, 2-methylene-4-oxo-4-((2,2,2-trifluoro-1-(4-(trifluoromethyl)phenyl)ethyl)amino)butanoic acid] |  | 
4 | > 100 | > 7.67 | <3 | 0.367 | 76 |  | C=C(CC(=O)N[C@H](c1ccc(C(F)(F)F)cc1)C(F)(F)F)C(=O)O [Example 21, (R)-2-methylene-4-oxo-4-((2,2,2-trifluoro-1-(4-(trifluoromethyl)phenyl)ethyl)amino)butanoic acid] |  | 
3.3 | > 100 | > 7.67 | <3 | 2.77 | 11 |  | C=C(CC(=O)N[C@@H](C)c1ccc(S(F)(F)(F)(F)F)cc1)C(=O)O [Example 56, (S)-2-methylene-4-oxo-4-((1-(4-(pentafluoro-A6-sulfaneyl)phenyl)ethyl)amino)butanoic acid] |  | 
19.5 | > 31.6 | 7.17 | 3 | > 7.67 | <3 |  | C=C(CC(=O)NC1(c2ccc(C(F)(F)F)cc2)COC1)C(=O)O [Example 13, 2-methylene-4-oxo-4-((3-(4-(trifluoromethyl)phenyl)oxetan-3-yl)amino)butanoic acid] |  | 
17.4 | > 100 | > 7.67 | <3 | 0.633 | 38 |  | C=C(CC(=O)N[C@@H](C)c1ccc(C(F)(F)C(F)(F)F)cc1)C(=O)O [Example 20, (S)-2-methylene-4-oxo-4-((1-(4-(perfluoroethyl)phenyl)ethyl)amino)butanoic acid] |  | 
31 |  | > 7.67 | <3 | 6.67 | 4 | > 100 | C=C(C(=O)O)C(C)C(=O)N[C@@H](C)c1ccc(C(F)(F)F)cc1 (single isomer, unassigned; isomer 1) [Example 54] |  | 
9.2 | > 100 | > 7.67 | <3 | > 7.67 | <3 |  | C=C(CC(=O)N[C@@H](C)c1ccc(C(F)(F)F)cn1)C(=O)O [Example 30, (S)-2-methylene-4-oxo-4-((1-(5-(trifluoromethyl)pyridin-2-yl)ethyl)amino) butanoic acid] |  | 
